US20260048046A1, “METHOD FOR IMPROVING GROWTH PERFORMANCE IN FEEDLOT CATTLE” (Elanco US Inc., priority 2022, published 2026)

System: beef steers
Assay: Lubabegron removal period study: animal mobility at harvest
Assay type: in vivo, cattle
Conditions: for Mobility Score 1, number of animals / Mobility Score 2, number of animals / Mobility Score 3, number of animals / Mobility Score 4, number of animals: Lubabegron 3.5 mg/kg, in lairage at harvest
Method: Seven hundred English x Continental cross steers (initial BW=531±8.8 kg) were used in a randomized complete block design with seven treatments. Pen served as the experimental unit. […] Animals were managed as two-time replications with each replication containing five blocks (7 pens/block and 10 steers/pen). All ten blocks started and ended within 48 hours of each other. Cattle were weighed by pen using a 45,000-kg capacity pen scale (Model WI-130, Avery Weigh-Tronix LLC, Fairmont, MN; 3.66 m×21.34 m). All treatments were on feed for 71 d with harvest scheduled for 72 d. Because of an impending weather event, cattle were weighed to obtain a final BW one d early. Cattle were placed on their respective ration for the additional d and then shipped to the harvest facility the following morning.
657 head were transported to a harvest facility approximately 495 km from the research facility. Animals were scored for animal mobility using the North American Meat Institute (NAMI, 2015) scoring scale described by Edwards-Callaway et al., (2017) while in lairage. […] Experienced staff collected an ear tag number, plant identification (ID), and carcass sequence and applied a unique carcass ID. Data collected on the kill floor included HCW, instances of excessive trim (>approximately 9 kg), and prevalence of liver abscess (Brown et al., 1975). Other carcass measures were obtained via instrument grading.
Continuous variables were analyzed using the Mixed procedure of SAS (version 9.4; SAS Institute, Cary, NC). Block served as a random effect whereas treatment was fixed. Initial body weight was used to describe the uniformity of cattle randomized to treatment and used as a covariate when appropriate. Data were calculated with deads and removals excluded. Linear and quadratic effects of lubabegron removal were conducted as were individual comparisons for duration of removal (i.e., 0 vs 2 d; 0 vs 4 d, 0 vs 6 d; 0 vs 8 d and 0 vs 16 d). Fisher's Exact test was evaluated on mobility scores 1 and 2. No test was conducted on mobility scores of 3 or 4 because no scores were reported. Simple means and standard deviation of the tissues collected for the 5 animals were calculated.

## CC(C)(Cc1ccc(Oc2ncccc2C#N)cc1)NC[C@H](O)COc1ccccc1-c1cccs1 [LUB, 2-{4-[2-({(2S)-2-Hydroxy-3-[2-(2-thienyl)phenoxy]propyl}amino)-2-methylpropyl]phenoxy}nicotinonitrile]
3.5 mg/kg DM vs non-treated, P<0.25
  Animal mobility when lubabegron was fed: No differences
Removal duration 0 d
  Mobility Score 1, number of animals: 92 n
  Mobility Score 2, number of animals: 3 n
  Mobility Score 3, number of animals: 0 n
  Mobility Score 4, number of animals: 0 n
Removal duration 2 d
  Mobility Score 1, number of animals: 95 n
  Mobility Score 2, number of animals: 0 n
  Mobility Score 3, number of animals: 0 n
  Mobility Score 4, number of animals: 0 n
Removal duration 4 d
  Mobility Score 1, number of animals: 91 n
  Mobility Score 2, number of animals: 2 n
  Mobility Score 3, number of animals: 0 n
  Mobility Score 4, number of animals: 0 n
Removal duration 6 d
  Mobility Score 1, number of animals: 89 n
  Mobility Score 2, number of animals: 4 n
  Mobility Score 3, number of animals: 0 n
  Mobility Score 4, number of animals: 0 n
Removal duration 8 d
  Mobility Score 1, number of animals: 87 n
  Mobility Score 2, number of animals: 4 n
  Mobility Score 3, number of animals: 0 n
  Mobility Score 4, number of animals: 0 n
Removal duration 16 d
  Mobility Score 1, number of animals: 90 n
  Mobility Score 2, number of animals: 5 n
  Mobility Score 3, number of animals: 0 n
  Mobility Score 4, number of animals: 0 n
Lubabegron 3.5 mg/kg DM, removal 0 to 16 d, P<0.06
  Animal mobility with increased duration of removal: tended (P<0.06) to be reduced
